Test results taken from patent US20100216761A1, “NOVEL AZETIDINONES USEFUL AS INHIBITORS OF ELASTASE” (priority 2007, published 2010).
pIC50: −log10 of the molar value.

Assays:
[1] = biological target: T1, Human Leukocyte Elastase (HLE) (Homo sapiens, UniProt P08246); test: HLE time-dependent inactivation assay, purified elastase; format: biochemical; settings: purified elastase 3 nM; inhibitor 26.5 nM; substrate 1 mM
T1 construct: The PMN lysates were prepared by isolating human neutrophils from whole blood; from tissue; host or cells: human neutrophils (PMN) isolated from whole blood, lysed by sonication in PBS
T1 sequence (P08246 30-267): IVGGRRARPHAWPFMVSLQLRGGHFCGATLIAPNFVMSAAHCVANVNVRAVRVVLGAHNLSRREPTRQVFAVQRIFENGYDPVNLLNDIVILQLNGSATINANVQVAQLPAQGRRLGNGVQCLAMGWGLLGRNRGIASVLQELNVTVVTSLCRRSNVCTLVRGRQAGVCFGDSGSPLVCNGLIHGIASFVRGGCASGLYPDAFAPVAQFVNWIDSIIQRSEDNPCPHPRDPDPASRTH
Method: (§1) As exemplified in Table 1, the Examples 1-6 of this application were determined to be potent, mechanism-based inactivators of Human Leukocyte Elastase (HLE) in two different in vitro time-dependent incubation assays. The two assays are described at the end of this Biological Data Section in Note 1. See the literature references in Note 2 for a discussion of the mechanism for this type of beta-lactam inactivation of HLE. Two sources of enzyme were used; either purified elastase or crude extracts of human polymorphonuclear leukocytes (PMN) containing elastase activity. […] For the compound of Example 1, the results were 638,000 M^−1 sec^−1 (average of n=3) and 809,000 M^−1 sec^−1 (n=4), respectively, and for Example 3, 804,000 M^−1 sec^−1 (average of n=4) and 952,000 M^−1 sec^−1 (n=5). […] Note that in this assay, head-to-head comparisons are particularly valuable.
(§2) Note 1: Enzyme Assays for the Inhibition of Human Polymorphonuclear Leukocyte Elastase Via Hydrolysis of N-Methyoxysuccinyl-alanyl-alanyl-prolylalanine-p-nitroanilide Reagent.
(§3) Prepare substrate by first dissolving in DMSO to 30 mg/ml (50 mM). Further dilute the substrate to 10 mM and add 25 μl to a final volume of 250 μl for a final concentration of 1 mM in the assay.
(§4) Prepare the enzyme in TES Buffer (0.045M TES (N-tris[hydroxymethyl]methyl-2-mino-ethanesulfonic acid), 0.45 M NaCl, pH 7.5.). Two sources of enzyme were used; either crude extracts of human polymorphonuclear leukocytes (PMN) containing elastase activity or purified elastase. The PMN lysates were prepared by isolating human neutrophils from whole blood after dextran sedimentation, ficoll density separation and red blood cell lysis. The neutrophils were lysed in PBS with sonciation and the concentration of active enzyme was determined by utilizing a standard curve of purified enzyme. For the purified elastase, the enzyme was resuspended at 10 mg/ml (˜340 μM) in 0.02M NaOAc, 50% glycerol. For both the PMN lysate and purified enzyme, a further dilution of enzyme was made to 30 nM and 25 μl was added to a final volume of 250 μl. The final concentration of enzyme in the assay was 3 nM.
(§5) The inhibitors to be tested were dissolved in DMSO at 10 mM. Directly before use, the inhibitors were further diluted into TES Buffer to 265 nM and […] was added to a final volume of 250 μl. The final concentration of inhibitor in the assay was 26.5 nM.
(§6) In a 96-well plate (flat bottom, polystyrene) 175 μl TES Buffer, 25 μl substrate, 25 μl inhibitor and 25 μl enzyme were added. After thoroughly mixing, the plate was then read in a spectrophotometer at 410 nm for 30 minutes counting every 10 seconds. Results were expressed as Kinact/Ki which is the second order rate constant in per mole per second for inactivation of the enzyme.

[2] = biological target: T1, Human Leukocyte Elastase (HLE); test: HLE time-dependent inactivation assay, PMN cell lysate source of HLE; format: biochemical; settings: 3 nM, inhibitor 26.5 nM, substrate 1 mM
Method: as §1, §2, §3, §4, §5, §6

CYP-P450 2C9 = biological target: T2, CYP-P450 2C9 (Homo sapiens, UniProt P11712); test: CYP-P450 reversible inhibition, 2C9; format: in vitro ADME; settings: human liver microsomes or recombinant P450 microsomes; fluorescent probe
T2 construct: host or cells: human liver microsomes or recombinant P450 microsomes
Method: (§7) This assay measured the reversible inhibition of the test compounds against three cytochrome P450 isozymes (CYP-P450 3A4, 2C9 and 2D6) in an automated screening formate. […] Cumene hydroperoxide, NADPH or NADPH regenerating systems can be used as electron donors for the P450 catalytic cycle. Control incubations containing no inhibitor or no fluorescent probe were performed to evaluate the 100% and 0% activities, respectively. The activity of P450 enzyme was evaluated in the presence of 0.137, 0.273, 0.547, 1.094, 2.188, 4.375, 8.750, 17.5, 35.0 and 70.0 μM concentrations of the test compounds. Inhibition curves were generated and IC50 values were calculated for each tested compound using standard techniques.

[3] = Liver microsome stability in 4 species: rat; format: in vitro ADME; settings: substrate 0.5 uM, microsome 0.25 mg/mL
Method: (§8) In a separate experiment as exemplified in Table 3, the stability of the current Example 1 and the comparator Compound #290 in incubations with microsome preparations from 4 different species were also determined (Note 5).
(§9) X. S. Tong, et. al., J. of Chromatography, 2006, 833, 165.

CYP2D6 = biological target: T3, CYP2D6 (Homo sapiens, UniProt P10635); test: CYP-P450 reversible inhibition, 2D6; format: in vitro ADME; settings: probe fluorogenic probe (not named); human liver microsomes or recombinant P450 microsomes; fluorescent probe
T3 construct: host or cells: human liver microsomes or recombinant P450 microsomes
Method: as §7

[4] = Liver microsome stability in 4 species: human; format: in vitro ADME; settings: substrate 0.5 uM, microsome 0.25 mg/mL
Method: as §8, §9

[5] = Rat 7 day oral dose limiting toxicity assessment; format: in vivo; settings: for mortality: 750 mpk dose group, n=5 per group; for NO Effect Level (NOEL): in vivo, po, 7 days; for Dose limiting toxicity assessment, 25 mpk: p.o. 25 mg per kg per day for 7 days; for Dose limiting toxicity assessment, 25 mpk / Dose limiting toxicity assessment, 100 mpk / Dose limiting toxicity assessment, 750 mpk: mono-L-malic acid salts; for Dose limiting toxicity assessment, 100 mpk: p.o. 100 mg per kg per day for 7 days; for Dose limiting toxicity assessment, 750 mpk: p.o. 750 mg per kg per day for 7 days; for physical signs of toxicity: p.o. 100 mpk dose for 7 days
Method: The observations summarized in Table 8 indicate that both Example 1 and Compound #290 have the same NO Effect Level in a Dose Limiting Toxicity assay in the rat (NOEL=100 mpk/day for 7 days for both) (Note 11), and would argue against the use of higher doses of Compound #290 to achieve the same plasma exposure as Example 1 in the clinic.
Example 1 and Compound #290 as their mono-L-malic acid salts were formulated in 0.5% Methocel and dosed p.o. at 25, 100 and 750 mg per k per day (free base equivalent) for 7 days (n=5 animals in each group). During the dosing period observation of any physical signs of toxicity were noted. Upon termination on day 8, a standard battery of blood chemistry and tissue analyses were performed and evaluated for significant effects compared to vehicle controls. […] At the 750 mpk dose level several adverse effects were observed including mortality (⅖ for Example 1 on Day 7 and 8 in the 750 mpk dose group; ⅕ on day 4 for Compound #290 in the 750 mpk dose group).

[6] = Liver microsome stability in 4 species: dog; format: in vitro ADME; settings: substrate 0.5 uM, microsome 0.25 mg/mL
Method: as §8, §9

T2 sequence (P11712 whole entry): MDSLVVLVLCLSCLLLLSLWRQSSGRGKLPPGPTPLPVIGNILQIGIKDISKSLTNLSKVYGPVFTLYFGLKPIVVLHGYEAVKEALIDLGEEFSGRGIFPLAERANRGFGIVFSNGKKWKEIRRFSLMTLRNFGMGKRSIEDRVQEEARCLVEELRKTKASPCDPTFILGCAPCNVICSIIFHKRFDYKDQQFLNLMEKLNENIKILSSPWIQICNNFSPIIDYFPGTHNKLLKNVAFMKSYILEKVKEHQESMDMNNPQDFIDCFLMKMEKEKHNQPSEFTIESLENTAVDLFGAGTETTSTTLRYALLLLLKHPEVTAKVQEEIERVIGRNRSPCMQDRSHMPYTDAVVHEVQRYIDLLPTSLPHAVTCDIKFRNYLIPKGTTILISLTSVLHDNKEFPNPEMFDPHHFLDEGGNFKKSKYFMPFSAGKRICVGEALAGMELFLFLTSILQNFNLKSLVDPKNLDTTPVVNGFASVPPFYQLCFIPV
T3 sequence (P10635 whole entry): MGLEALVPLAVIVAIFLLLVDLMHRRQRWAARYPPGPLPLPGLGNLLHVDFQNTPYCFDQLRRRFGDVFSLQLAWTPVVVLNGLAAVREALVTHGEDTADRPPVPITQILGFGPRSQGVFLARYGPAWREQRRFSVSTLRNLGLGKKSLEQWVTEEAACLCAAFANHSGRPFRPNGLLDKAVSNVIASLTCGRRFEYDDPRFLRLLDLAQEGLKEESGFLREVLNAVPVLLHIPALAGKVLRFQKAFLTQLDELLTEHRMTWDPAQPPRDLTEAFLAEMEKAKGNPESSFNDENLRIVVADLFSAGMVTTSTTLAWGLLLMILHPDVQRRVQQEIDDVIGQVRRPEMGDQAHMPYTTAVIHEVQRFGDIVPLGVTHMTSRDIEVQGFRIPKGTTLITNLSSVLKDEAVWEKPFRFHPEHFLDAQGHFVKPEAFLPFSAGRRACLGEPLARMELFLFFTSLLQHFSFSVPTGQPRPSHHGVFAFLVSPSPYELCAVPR

| SMILES | kinact/KI [1] | kinact/KI [2] | pIC50 (CYP-P450 2C9) | % Left @ 30 min [3] | % Left @ 60 min [3] | pIC50 (CYP2D6) | % Left @ 30 min [4] | % Left @ 60 min [4] | mortality [5] | NO Effect Level (NOEL) [5] | Dose limiting toxicity assessment, 25 mpk ([5]; 25 mg/kg) | Dose limiting toxicity assessment, 100 mpk ([5]; 100 mg/kg) | Dose limiting toxicity assessment, 750 mpk [5] | physical signs of toxicity [5] | % Left @ 30 min [6] | % Left @ 60 min [6] | Dose limiting toxicity assessment, 25 mpk ([5]; listed as xample 1, 25 mg/kg) | Dose limiting toxicity assessment, 100 mpk ([5]; listed as xample 1, 100 mg/kg) |
| --- | --- | --- | --- | --- | --- | --- | --- | --- | --- | --- | --- | --- | --- | --- | --- | --- | --- | --- |
| CCC[C@@H](NC(=O)N1C(=O)C(CC)(CC)[C@@H]1Oc1ccc(C(=O)N(CC)CCN(C)C)cc1)c1ccc(C(F)(F)F)cc1 [Example 3, 2-(S)-[4-(((2-(Dimethylamino)ethyl)ethylamino)carbonyl)phenoxy]-3,3-diethyl-N-[1-(R)-(4-(trifluoromethyl)phenyl)butyl]-4-oxo-1-azetidinecarboxamide] | 804000 M⁻¹ s⁻¹ | 952000 M⁻¹ s⁻¹ | 5.09 | – | – | – | – | – | – | – | – | – | – | – | – | – | – | – |
| CCC[C@@H](NC(=O)N1C(=O)C(CC)(CC)[C@@H]1Oc1ccc(C(=O)N(C)CCN(C)C)cc1)c1ccc(OC)cc1 [Compound #290, reference compound] | 523000 M⁻¹ s⁻¹ | – | 4.60 | 99% | 93% | < 5.10 | 93% | 88% | ⅕ | 100 mpk/day | no adverse effects | no adverse effects | Significant toxicity observed | salivation | 100% | 102% | – | – |
| CCC[C@@H](NC(=O)N1C(=O)C(CC)(CC)[C@@H]1Oc1ccc(C(=O)N(CC)CCN(C)C)cc1)c1ccc(OC(F)(F)F)cc1 [Example 1, 2-(S)-[4-(((2-(Dimethylamino)ethyl)ethylamino)carbonyl)phenoxy]-3,3-diethyl-N-[1-(R)-(4-(trifluoromethoxy)phenyl)butyl]-4-oxo-1-azetidinecarboxamide] | 638000 M⁻¹ s⁻¹ | 809000 M⁻¹ s⁻¹ | 4.77 | 96% | 94% | < 5.10 | 92% | 92% | ⅖ | 100 mpk/day | no adverse effects | no adverse effects | Significant toxicity observed | salivation | 93% | 86% | No effects | No effects |
